# From patent publication US20240335547A1, “MODIFIED CHOLIC ACID CONJUGATES” (priority 2022, published 2024)
# “And” between values parts separate entries of the source, which are not always exact repeats. Equal entries are not always repeated. Where two headings read alike, the source gives them in different places.
# Columns and labels:
# [1] = Histopathological studies (H&E staining, imaging) of lungs of infected and non-infected mice; format: in vivo, BALB/c mice
# Method: Group A: No infection, treated with PBS: Ten (10) BALB/c 6-weeks old female mice were used for this group. Mice were first anesthetized with isoflurane. Each mouse was intranasally treated with one dose of PBS (75 ul). Mice were sacrificed at 72 hrs, and 7 days post treatment. The lungs from these mice were collected for immunohistochemistry and cytokines analysis.
# Group B: No infection, treated with Compound 12: Twenty (20) BALB/c 6-weeks old female mice was used for this group. Mice were first anesthetized with isoflurane. Each mouse was intranasally treated with one dose of 0.5 mg of […] diluted in PBS (75 ul). Mice were sacrificed at 24 hrs, 48 hrs, 72 hrs, and 7 days post treatment. The lungs from these mice were collected for immunohistochemistry and cytokines analysis.
# (§1) Group C: Infection with 229E, treated with PBS: Thirty five (35) BALB/c 6-weeks old female mice were used for this group. Mice were first anesthetized with isoflurane. Each mouse was intranasally infected with 1×105 plaque forming unit (pfu) of HCoV-229E and then treated with PBS (75 ul) 24 hours later. Mice were sacrificed at 24 hrs post infection, and 24 hrs, 48 hrs, 72 hrs, 6 days, and 7 days post treatment. The lungs from these mice were collected for viral load, immunohistochemistry and cytokines analysis.
# (§2) Group D: Infection with 229E, treated with Compound 12: Forty Five (45) BALB/c 6-weeks old female mice were used for this group. Mice were first anesthetized with isoflurane. Each mouse was intranasally infected with 1×10^5 pfu of HCoV-229E and then treated with 0.5 mg of Compound 12 diluted in PBS (75 ul) 24 hours later. Mice from this group were sacrificed at 24 hrs, 48 hrs, 72 hrs, 6 days and 7 days post treatment. The lungs from these mice were collected for viral load, immunohistochemistry and cytokines analysis.
# [2] = test system: Golgi apparatus, mitochondria, and endoplasmic reticulum (ER); format: cell-based, human
# From the text: The effect of compound 12 was studied on cellular structures and organelles such as Golgi apparatus, mitochondria, and endoplasmic reticulum (ER).
# [3] = test system: Calu-3 cells (ATCC #HTB-55); details: for % Luminescence / Luminescence intensity: 3 repeats
# Candida albicans = test: Fungicidal activity MIC/MBC; format: cell-based; details: Yeast
# [4] = molecular target: 3CL Protease (SARS-COV-2) (Severe acute respiratory syndrome coronavirus 2, UniProt P0DTD1); test: 3CL Protease (SARS-COV-2) Inhibitor Assay; format: biochemical
# Method: The compound is dissolved in DMSO. A series of dilutions were prepared with 5% DMSO in 3CL Protease assay buffer. 10 μl of the dilution was added to a 50 μl reaction so that the final concentration of DMSO is 1% in all of the reactions. The compound was pre-incubated in duplicate at room temperature for 30 minutes in a mixture containing 3CL Pro assay buffer, 3CL enzyme and a test compound. After 30 minutes, the enzymatic reactions were initiated by the addition of 3CL Protease substrate. The enzymatic reaction proceeded for 4 hours at room temperature. Fluorescence intensity was measured at an excitation of 360 nm and an emission of 460 nm using a Tecan Infinite M1000 microplate reader.
# HCoV-229E = test: In vivo viral load in mice lung tissue; design: species or system BALB/c mice; details: 2 days and 3 days post-treatment, versus control mice
# Method: FIG. 6 illustrates the in vivo viral load reduction in mice lung tissue administered Compound 12 compared to control mice that were not administered a compound of the disclosure. In the Group administered Compound 12, a substantial (30-200 fold) reduction of virus replication and production was recorded 2 days and 3 days post-treatment.
# as §1, §2
structure (smiles),measurement,setting,value
C[C@H](CCC(=O)NCCNC(=O)CCCC[C@@H]1SCC2NC(=O)NC21)C1CCC2C3C(C[C@H](OC(=O)CCN)[C@@]21C)[C@@]1(C)CC[C@@H](OC(=O)CCN)CC1C[C@H]3OC(=O)CCN (stereo partly drawn) [Compound 12],effect on the morphology of the lung,"[1]; 3 days post treatment, 0.5 mg intranasally",does not cause significant detrimental effects
same,toxicity in vivo,[1]; dosage 0.5 mg/mice,does not exhibit significant toxicity in vivo
same,detection of compound in the lung tissues (staining and imaging),"[1]; intranasal, 0.5 mg",detected at 1-2 days post treatment but not in 3 days post treatment
same,effect on overall structure and organization of cellular structures and organelles,[2],did not affect the overall structure and organization
same,% Luminescence,[3]; 20 uM,102% and 97% and 101%
same,Luminescence intensity,[3]; 20 uM,"27,723 and 26,322 and 27,521"
same,% Luminescence,[3]; 26.7 uM,103% and 97% and 99%
same,Luminescence intensity,[3]; 26.7 uM,"27,962 and 26,310 and 26,857"
same,% Luminescence,[3]; 35.6 uM,105% and 103% and 104%
same,Luminescence intensity,[3]; 35.6 uM,"28,560 and 28,084 and 28,199"
same,% Luminescence,[3]; 47.5 uM,110% and 105% and 104%
same,Luminescence intensity,[3]; 47.5 uM,"29,946 and 28,451 and 28,177"
same,% Luminescence,[3]; 63.3 uM,111% and 110% and 106%
same,Luminescence intensity,[3]; 63.3 uM,"30,079 and 29,936 and 28,795"
same,% Luminescence,[3]; 84.4 uM,110% and 109% and 108%
same,Luminescence intensity,[3]; 84.4 uM,"29,975 and 29,736 and 29,345"
same,% Luminescence,[3]; 112.5 uM,108% and 106% and 105%
same,Luminescence intensity,[3]; 112.5 uM,"29,458 and 28,788 and 28,587"
same,% Luminescence,[3]; 150 uM,107% and 104% and 106%
same,Luminescence intensity,[3]; 150 uM,"29,194 and 28,202 and 28,754"
same,% Luminescence,[3]; 200 uM,111% and 107% and 106%
same,Luminescence intensity,[3]; 200 uM,"30,150 and 29,181 and 28,872"
same,CC50,"[3]; human, 3 days",> 200 µM
same,MBC,Candida albicans,66.2 µg/mL
same,MIC,Candida albicans,66.2 µg/mL
same,IC50,[4],> 10 µM
same,% Activity,"[4]; 0.0003 μM, 2 repeats",101%
same,activity at 0.0003 µM,"[4]; 0.0003 μM, 2 repeats",99%
same,activity at 0.001 µM,"[4]; 0.001 μM, 2 repeats",103%
same,activity at 0.003 µM,"[4]; 0.003 μM, 2 repeats",103%
same,% Activity,"[4]; 0.01 μM, 2 repeats",100%
same,activity at 0.01 µM,"[4]; 0.01 μM, 2 repeats",96%
same,activity at 0.03 µM,"[4]; 0.03 μM, 2 repeats",95%
same,% Activity,"[4]; 0.1 μM, 2 repeats",89%
same,activity at 0.1 µM,"[4]; 0.1 μM, 2 repeats",90%
same,% Activity,"[4]; 0.3 μM, 2 repeats",88%
same,activity at 0.3 µM,"[4]; 0.3 μM, 2 repeats",91%
same,% Activity,"[4]; 1 μM, 2 repeats",89%
same,activity at 1 µM,"[4]; 1 μM, 2 repeats",90%
same,% Activity,"[4]; 3 μM, 2 repeats",79%
same,activity at 3 µM,"[4]; 3 μM, 2 repeats",82%
same,inhibition at 10 µM,[4]; 10 μM,24%
same,% Activity,"[4]; 10 μM, 2 repeats",77%
same,activity at 10 µM,"[4]; 10 μM, 2 repeats",75%
same,reduction of virus replication and production,HCoV-229E,30-200 fold
